From patent US12590108B2, “Boracic acid compound” (Phaeno Therapeutics Co., Ltd, priority 2020, dated 2026) come the findings set out here.

For assay [1], the system named is Klebsiella pneumoniae ATCC BAA-1705. Description: Mouse thigh muscle infection model, bacterial load. It is filed as in vivo, CD-1 female mice. The conditions noted are these: endpoint 12 h. On the procedure: (§1) 36 CD-1 female mice were divided into 12 cages with 3 […] in each cage. The day of infection was denoted as day 0.
(§2) Immunosuppressant cyclophosphamide at 150 mg/kg was injected intraperitoneally on day −4 and immunosuppressant cyclophosphamide at 100 mg/kg was injected intraperitoneally on day −1 to induce immunodeficient mice.
On day −1, the strain Klebsiella pneumoniae ATCC BAA-1705 was resuscitated on an MHA plate. Resuscitated colonies were picked and dissolved in sterile physiological saline to prepare a bacterial solution with a concentration of 5.6E+07 CFU/mL for thigh muscle infection in mice. The initial time of infection was denoted as 0 h, and 100 μL of the bacterial solution was injected into each mouse at the thigh muscle at 0 h, that is, the inoculation amount was 5.6E+06 CFU/mouse. 2 h after infection, dosing was performed according to the experimental scheme. The specific experimental scheme was as follows (see Table 4): • (1) 2 h after infection: for the 1st cage of mice, at the endpoint, thigh muscle tissue was taken and placed in 10 mL of sterile physiological saline, the tissue was homogenized by a homogenizer, and the homogenate was diluted in a gradient and spotted in a plate, with two replicates for each mouse. • (2) 2 h after infection: the 2nd to 12th cages were respectively treated at 10 mL/kg by volume according to the body weight of the mice, the 2nd cage of mice were given a vehicle by intravenous injection every 2 h, and the endpoint was 12 h; the 3rd cage of mice were given 100 mg/kg of meropenem by intravenous injection every 2 h, and the endpoint was 12 h; the 4th cage of mice were given 100 mg/kg of meropenem and 20 mg/kg of QPX7728 by intravenous injection every 2 h, and the endpoint was 12 h; the 5th cage of mice were given 100 mg/kg of meropenem and 100 mg/kg of compound 15 by intravenous injection every 2 h, and the endpoint was 12 h; the 6th cage of mice were given 100 mg/kg of meropenem and 20 mg/kg of compound 15 by intravenous injection every 2 h, and the endpoint was 12 h; the 7th cage of mice were given 100 mg/kg of meropenem and 4 mg/kg of compound 15 by intravenous injection every 2 h, and the endpoint was 12 h; the 8th cage of mice were given 100 mg/kg of cefepime by intravenous injection every 2 h, and the endpoint was 12 h; the 9th cage of mice were given 100 mg/kg of cefepime and 20 mg/kg of QPX7728 by intravenous injection every 2 h, and the endpoint was 12 h; the 10th cage of mice were given 100 mg/kg of cefepime and 100 mg/kg of compound 15 by intravenous injection every 2 h, and the endpoint was 12 h; the 11th cage of mice were given 100 mg/kg of cefepime and 20 mg/kg of compound 15 by intravenous injection every 2 h, and the endpoint was 12 h; and the 12th cage of mice were given 100 mg/kg of cefepime and 4 mg/kg of compound 15 by intravenous injection every 2 h, and the endpoint was 12 h. At the endpoint of 12 h, thigh muscle tissue was taken and placed in 10 mL of sterile physiological saline, the tissue was homogenized by a homogenizer, and the homogenate was diluted in a gradient and spotted in a plate, with two replicates for each mouse. The bacterial load in the thigh muscle tissue of the mice was counted, and the experiment was summarized as follows (see Table 5): […]

Assay [2] shares this test system. Description: Mouse lung infection model, bacterial load. It is filed as in vivo, CD-1 female mice. The conditions noted are these: endpoint 12 h. On the procedure:
as §1, §2
On day −1, the strain Klebsiella pneumoniae ATCC BAA-1705 was resuscitated on an MHA plate. Resuscitated colonies were picked and dissolved in sterile physiological saline to prepare a bacterial solution with a concentration of 2.75E+08 CFU/mL for lung infection by nasal drip. The initial time of infection was denoted as 0 h, and 50 μL of the bacterial solution was injected into each mouse by nasal drip at 0 h, that is, the inoculation amount was 1.38E+07 CFU/mouse. 2 h after infection, dosing was performed according to the experimental scheme. The specific experimental scheme was as follows (see Table 6): • (1) 2 h after infection: for the 1st cage of mice, at the endpoint, lung tissue was taken and placed in 10 mL of sterile physiological saline, the tissue was homogenized by a homogenizer, and the homogenate was diluted in a gradient and spotted in a plate, with two replicates for each mouse. • (2) 2 h after infection: the 2nd to 12th cages were respectively treated at 10 mL/kg by volume according to the body weight of the mice, the 2nd cage of mice were given a vehicle by intravenous injection every 2 h, and the endpoint was 12 h; the 3rd cage of mice were given 100 mg/kg of meropenem by intravenous injection every 2 h, and the endpoint was 12 h; the 4th cage of mice were given 100 mg/kg of meropenem and 20 mg/kg of QPX7728 by intravenous injection every 2 h, and the endpoint was 12 h; the 5th cage of mice were given 100 mg/kg of meropenem and 100 mg/kg of compound 15 by intravenous injection every 2 h, and the endpoint was 12 h; the 6th cage of mice were given 100 mg/kg of meropenem and 20 mg/kg of compound 15 by intravenous injection every 2 h, and the endpoint was 12 h; the 7th cage of mice were given 100 mg/kg of meropenem and 4 mg/kg of compound 15 by intravenous injection every 2 h, and the endpoint was 12 h; the 8th cage of mice were given 100 mg/kg of cefepime by intravenous injection every 2 h, and the endpoint was 12 h; the 9th cage of mice were given 100 mg/kg of cefepime and 20 mg/kg of QPX7728 by intravenous injection every 2 h, and the endpoint was 12 h; the 10th cage of mice were given 100 mg/kg of cefepime and 100 mg/kg of compound 15 by intravenous injection every 2 h, and the endpoint was 12 h: the 11th cage of mice were given 100 mg/kg of cefepime and 20 mg/kg of compound 15 by intravenous injection every 2 h, and the endpoint was 12 h; and the 12th cage of mice were given 100 mg/kg of cefepime and 4 mg/kg of compound 15 by intravenous injection every 2 h, and the endpoint was 12 h. At the endpoint, lung tissue was taken and placed in 10 mL of sterile physiological saline, the tissue was homogenized by a homogenizer, and the homogenate was diluted in a gradient and spotted in a plate, with two replicates for each mouse. The bacterial load in the lung tissue of the mice was counted, and the experiment was summarized as follows (see Table 7): […]

The test system of assay [3] is Klebsiella pneumoniae ARLG-1196 (CTM-1 group, SHV, NDM, TEM). Kind of assay: MIC shift, liquid microdilution, meropenem fixed at 4 μg/mL. It is filed as cell-based. The conditions noted are these: compound + meropenem fixed at 4 μg/mL; K. pneumoniae ARLG-1196, CTM-1 and isoforms thereof, SHV, NDM, TEM. On the procedure:
(§3) The test compound was tested for minimum inhibitory concentration against three strains of Klebsiella pneumoniae ATCC BAA-1705 (KPC-2), ATCC BAA-2470 (NDM-1), and ARLG-1196 (CTM-1 group, SHV, NDM, TEM), and one strain of Escherichia coli ARLG-2829 (NDM-5, OXA-1). According to the requirements of the Institute of Clinical And Laboratory Standard (CLSI), the minimum inhibitory concentration (MIC) of each drug combination was determined by liquid microdilution method under the premise of fixing the concentration of meropenem at 4 μg/mL.
(§4) Preparation of compound mother plate: On the day of the experiment, the compound to be tested (the final concentration was 0.3125 to 20 μg/mL) and meropenem (the final concentration ranged from 1 to 64 μg/mL) were dissolved in a corresponding solvent (sterile ddH2O or DMSO) to form 100× mother liquors with the highest test concentration, and the compound to be tested and meropenem were then subjected to 2-fold series gradient dilution in a V-bottom 96-well plate to obtain 100× working solutions with the final concentration.
(§5) Preparation of inoculation solution: Fresh bacterial clones were picked from an overnight Mueller Hinton II Agar medium (MHA, Cat. No. 211438, BD BBLTM) plate, suspended in sterilized physiological saline, and adjusted to a concentration of 1×10^8 CFU/mL, and the suspension was further diluted to 5-10^5 CFU/mL with Cation-Adjusted Mueller Hinton II Broth (MHB, Catalog #212332, BD BBLTM).
(§6) Detection of minimum inhibitory concentration (MIC): 1 μL of the compound to be tested and the meropenem working solution were transferred to the corresponding wells to be tested in a round-bottomed 96-well plate (Catalog #3788, Corning), and 98 μL of the inoculation solution was added to the round-bottomed 96-well plate containing drugs, which was an MIC test plate; and after the plate was inverted and cultured at 37° C. for 20-24 h, the MIC value was read, and the minimum inhibitory concentration for inhibiting bacterial growth was defined as MIC.

Assay [4] relates to Escherichia coli ARLG-2829 (NDM-5, OXA-1). The assay is described as above. It is filed as cell-based. The following applies: compound + meropenem fixed at 4 μg/mL; E. coli ARLG-2829 (urine clinical isolate), NDM-5, OXA-1. The method, then: as §3, §4, §5, §6
The test system of assay [5] is Klebsiella pneumoniae ATCC BAA-1705 (KPC-2). The description is as above. It is filed as cell-based. The conditions noted are these: compound + meropenem fixed at 4 μg/mL; K. pneumoniae ATCC BAA-1705, KPC-2. On the procedure: as §3, §4, §5, §6
The subject of assay [6] is Klebsiella pneumoniae ATCC BAA-2470 (NDM-1). The assay is described as above. It is filed as cell-based. The following applies: compound + meropenem fixed at 4 μg/mL; K. pneumoniae ATCC BAA-2470, NDM-1. On the procedure:
as §3, §4, §5, §6

The mark [7] stands for this setting: antibiotic alone 100 mg/kg i.v. q2h.
Setting [8] is: cefepime 100 mg/kg + inhibitor 20 mg/kg i.v. q2h.
The mark [9] stands for this setting: meropenem 100 mg/kg + inhibitor 20 mg/kg i.v. q2h.

As for `CO/N=C(\C(=O)N[C@@H]1C(=O)N2C(C(=O)[O-])=C(C[N+]3(C)CCCC3)CS[C@H]12)c1csc(N)n1` [Cefepime, cefepime, reference compound], in assay [1] (setting [7]), the “Average CFU in mice (thigh muscle tissue)” value is 4.25E+07 CFU/mouse. The “Average CFU in mice (lung tissue)” value in assay [2] (setting [7]) came out at 1.90E+08 CFU/mouse.

For orientation: MIC means the least concentration at which growth counts as inhibited. For `O=C(O)c1c(OC2COC2)ccc2c1O[B-](O)(O)CO2` [Compound 23], the MIC in assay [3] worked out at 1.25 µg/mL; in assay [4], 5 µg/mL; in assay [5] it was 0.625 µg/mL; in assay [6], 1.25 µg/mL.

As to `CCCOc1ccc2c(c1C(=O)O)O[B-](O)(O)CO2` [Compound 29], the MIC in assay [3] came out at 1.25 µg/mL; in assay [4] it was 5 µg/mL; in assay [5] it was 0.625 µg/mL; in assay [6], 2.5 µg/mL.

Regarding `O=C(O)c1c(F)ccc2c1OB(O)[C@@H]1C[C@H]21` [QPX7728, reference compound], the figures for the “Average CFU in mice (thigh muscle tissue)” value in assay [1] (setting [8]) and in assay [1] (setting [9]) were 1.50E+07 CFU/mouse and 1.02E+07 CFU/mouse, respectively. The “Average CFU in mice (lung tissue)” value in assay [2] (setting [8]) stood at 2.68E+06 CFU/mouse; in assay [2] (setting [9]), 8.42E+06 CFU/mouse.
